# “Also recorded” adds a separate entry of the source.
# Experiments:
# [1] = test system: HBEC3 KT cells; test: cell-free area closure of annular monolayers formed by magnetic exclusion; type: cell-based, human; details: for closure rate of cell-free area: 0 h to 16 h, N=3
# Procedure: The cells were maintained at 37° C. and 5% CO2 in a humidified atmosphere.
# The magnetic exclusion technique was applied to form annular HBEC3 KT monolayers in which HBEC3 KT cells were trypsinized at ˜80% confluency. A 96-well flat-bottom TCT plate (IBIDI) was placed on an array of coaxially arranged ring and cylinder magnets (N52 grade, Zigmyster Magnets). The stock gadolinium-based paramagnetic solution (1 M) was diluted to 25×10^−3 M using the serum-free culture medium. A 250 μL suspension of ˜50,000 cells in 25×10^−3 M paramagnetic solution was added to the wells. After a 3 h incubation period (37° C. and 5% CO2 in a humidified atmosphere), the well plate was removed from the magnet array. The paramagnetic solution was removed, and the wells were washed twice with 200 μL culture medium. […] Tissue culture wells were plasma treated to enhance the attachment of the ECM proteins to the well surfaces. A 300 μL solution of collagen I (500 μg mL^−1) and fibronectin (12 μg mL^−1) was added to the wells. The well plate was incubated at 4° C. overnight, and subsequently, the coated wells were rinsed with phosphate-buffered saline (PBS). Annular HBEC3 KT monolayers were assembled magnetically on the coated surfaces. A fluorescent dye solution of 2 μM Calcein AM and Hoechst 33342 (2 drops per mL) was used to stain the monolayers. Brightfield and fluorescent images were taken using a 10× objective of an EVOS M7000 inverted microscope (ThermoFisher). Excitation/emission wavelengths of 470/525 nm and 357/447 nm were used for Calcein AM and Hoechst 33342, respectively.
# The experimental study also involved assessing annular HBEC3 KT monolayer formation by gravitational settling. Annular inserts were 3D printed with a Formlabs Form 2 printer using a clear resin (RS-F2-GPCL-04). The inserts were attached to the well surfaces of a 12-well plate using patterned double-sided silicone adhesive tapes. The well plates containing the inserts were sterilized with UV radiation. A 100 μL suspension of ˜50,000 HBEC3 KT cells in culture medium was added to the inserts. After a 3 h incubation period, the inserts were removed, and the wells were washed twice with 500 μL culture medium.
# Cell counting and geometric measurements were automatically determined in the experimental study from fluorescent images with ImageJ Fiji. The watershed segmentation algorithm (Process—Binary—Watershed) was used to distinguish cells in high cell density regions. The brightfield image contrast was adjusted using the Enhance Local Contrast (CLAHE) ImageJ plugin to measure the cell-free area. The Sobel edge detection algorithm (Process—Find edges) was used to highlight the boundaries of the monolayers. Next, image smoothing was performed using the Gaussian Blur filter (Process—Filter—Gaussian Blur). The cell-free areas were measured automatically after setting the image threshold. The equivalent diameters were calculated from the cell-free areas. The monolayer annulus width was determined by taking the average of the annulus widths measured at four orthogonal positions. The straight-line tool of ImageJ was used for the measurements.
# The cell-free area closure of the annular monolayers was also studied in the experiments. […] The annular monolayers were produced on TCT and collagen I-fibronectin coated well surfaces to investigate the influence of the underlying substrate on the closure rate.
# The initial boundary of the cell-free region is marked by a white dotted line (e.g., see FIG. 6A).
# The closure rates are calculated by measuring the differences between the mean initial and final cell-free areas at 0 h and 16 h.
# [2] = test system: HBEC3 KT cells; test: live/dead assay (NucBlue Live / NucGreen Dead); type: cell-based
# Procedure: The experimental study also involved performing live/dead assays. A 400 μL suspension of ˜5000 HBEC3 KT cells in 25×10^−3 M paramagnetic solution was added to the wells of a 48-well TCT plate. After a 3 h incubation period, the paramagnetic solution was replaced with the culture medium. As controls, an equal number of cells were seeded into wells containing only the culture medium. The cell viability was assessed using the NucBlue Live and NucGreen Dead nuclear acid stains (ReadyProbes, ThermoFisher). Fluorescent images were taken at 24, 48, 96, and 144 h. Excitation/emission wavelengths of 357/447 nm and 470/525 nm were used for NucBlue and NucGreen, respectively. The quantification of live and dead cells was performed using ImageJ Fiji.
# In the experimental study, all statistical tests were performed using the GraphPad Prism software (version 9.0.0). Two-way ANOVA with Bonferroni post hoc tests were performed to assess the effect of residual Gd^3+ on cell viability and metabolism over time. […] A p-value<0.05 was considered statistically significant. […]
# (§1) The effect of the residual Gd^3+ on cell viability was assessed at 24, 48, 96, and 144 h using a live/dead assay. […] Cell metabolism, which is an indicator of viability, was also measured using a resazurin-based assay (Presto Blue HS). The increase in the fluorescence intensity values over time indicates cell proliferation.
# [3] = test system: HBEC3 KT cells; test: resazurin-based metabolism assay (Presto Blue HS); type: cell-based; details: 25×10^−3 M paramagnetic solution 3 h, then 24, 48, 96 and 144 h
# Procedure: The experimental study also involved performing a metabolism assay. A 250 μL suspension of ˜4000 HBEC3 KT cells in 25×10^−3 M paramagnetic solution was added to the wells of a 96-well plate. Following a 3 h incubation period, the paramagnetic solution was replaced with the culture medium. An equal number of cells suspended in the culture medium were added to the wells as controls. A resazurin-based assay (Presto Blue HS, ThermoFisher) was used to analyze cell metabolism at 24, 48, 96, and 144 h. The fluorescence intensity was measured at multiple spots within each well using excitation/emission wavelengths of 560/590 nm (SpectraMax i3, Molecular Devices). Blank wells containing only culture medium were used to account for background fluorescence. The average fluorescence intensity of the blanks was subtracted from the average fluorescence value obtained from each well of the Gadolinium and control groups.
# In the experimental study, all statistical tests were performed using the GraphPad Prism software (version 9.0.0). […]
# as §1
# [4] = test system: HBEC3 KT cells; test: transcriptome analysis (Clariom S microarray); type: cell-based, human; details: 25×10^−3 M paramagnetic solution 3 h, RNA after 24 h, 21,448 genes, fold-change cutoff 2, FDR p<0.05, N=4
# Procedure: The experimental study also involved performing transcriptome analysis. A 1.5 mL suspension of ˜500,000 HBEC3 KT cells in 25×10^−3 M paramagnetic solution was added to the wells of a 12-well TCT plate. Following a 3 h incubation period, the paramagnetic solution was replaced with the culture medium. After 24 h, total RNA was isolated and purified using RNeasy Mini Kit (Qiagen) as per the manufacturer's protocol. The RNA concentration and purity were measured using a spectrophotometer (NanoDrop, ThermoFisher). Transcriptome analysis was performed using Clariom S microarray gene chips (ThermoFisher).
# In the experimental study, all statistical tests were performed using the GraphPad Prism software (version 9.0.0). Two-way ANOVA with Bonferroni post hoc tests were performed to assess the effect of residual Gd^3+ on cell viability and metabolism over time. […] A p-value<0.05 was considered statistically significant. The statistical evaluation of the microarray datasets was performed using the transcriptome analysis console (TAC) software (ThermoFisher). The raw gene expression data were normalized using the signal space transformation-robust multiarray analysis (SST-RMA) algorithm^57. A fold-change cutoff value of 2 was used to identify the differentially expressed genes^42. […]
# [5] = test system: cells; details: concentration of 25 mM; cited from earlier work
# [6] = test system: HBEC3 KT cells; test: reaction-diffusion (FKPP/Porous-Fisher) numerical model and logistic growth fit of cell-free area closure; set-up: species or system human; details: for growth rate λ: from logistic growth equation, U at 16 h and U0; for D0 / D1 / m: Replicate 1
# Procedure: Numerical model: The Fisher—Kolmogorov—Petrovsky—Piskunov (FKPP) reaction-diffusion equation is routinely used to model the closure of rectangular cell-free areas in scratch-based assays^27,47,48. The FKPP equation consists of a diffusion term that describes cell migration and a source term representing cell proliferation. The one-dimensional axisymmetric form of the FKPP equation is given by equation (6):^49
# where U denotes the cell density (cells mm^−2) and D the cell diffusivity (mm^2 h^−1). The source term consists of a logistic growth function G=λ(1−U/K) with growth rate λ(h^−1) and carrying capacity K (cells mm^−2)^47. The carrying capacity is the maximum density for a cell monolayer when contact inhibition reduces the net cell proliferation to zero^47. The classical FKPP model assumes a constant cell diffusivity D=D0, where D0 is the diffusivity for isolated cells^27,47. In contrast, the Porous-Fisher model, which is an extension of the FKPP model, uses a diffusivity function D=D0(U/K)^m that increases with cell density (m>0), where D0 denotes the maximum diffusivity^47,50.
# Besides cell migration, cell proliferation leads to the closure of cell-free areas. To determine […], a logistic growth equation^51 was used as shown in equations 7 and 8:
# where U0 denotes the initial cell density. The maximum cell density determined by counting cells in the confluent regions of annular HBEC 3KT monolayers gives K=1690 cells mm^−2, which is consistent with the previously reported values^28,52. Experimentally derived values of U at 16 h and U0 were used to calculate λ from Equation 8.
# Brightfield images of the annular monolayers were taken every 2 h over 16 h to track the closures of the cell-free areas on TCT surfaces. Consistent with the monolayer geometry, circular tracks of ˜0.14 mm width were superimposed on the brightfield images to manually count the cells within the domain 0≤r≤Rmax. The total number of cells counted in each track was divided by the respective annulus area to generate experimental cell density datasets. In the cell density plots, each track was represented by the radial distance of its midpoint from the center of the annular monolayer.
# The finite volume method (FVM) with a time marching scheme was used to discretize and predict cell density (Up) values from Equation 6. A linear combination of the classical FKPP and Porous-Fisher diffusivity functions were used, i.e., D=D0+D1(U/K)^m, to model the spatiotemporal change in cell density on the TCT surfaces. The combined diffusivity function was previously used to fit cell density profiles of scratch assays with rectangular cell-free areas^50. A zero net flux boundary condition was imposed at both r=0 and r=Rmax^28,50.
# As the cell density decreases at the boundary Rmax, the zero net flux condition applied at this boundary is an approximation. A Genetic Algorithm (GA)-based error minimization approach was implemented to minimize the root mean squared error (RMSE) between Up and the experimental (Uexp) cell density values^53 as shown in equation 9.
# The cell density was measured at 15 locations within 0≤r≤Rmax and the index i denotes the location number. The index j indicates timepoints, where j=1, 2, 3 and 4 corresponds to t=4, 8, 12 and 16 h. […] The limits for D0 are 0≤D0≤0.004 mm^2 h^−1, where D0=0.004 mm^2 h^−1 is the maximum isolated-cell diffusivity value reported in the literature^28,50.
# The experimentally obtained cell-free area closure rates were approximately two orders higher than the maximum value of D0(Section 2.3). […] The exponent m determines whether the diffusivity D changes linearly or non-linearly with a change in cell density. However, the biological meaning of m is not yet fully understood^47. Here, the limits 0≤m≤4 are considered, where m=4 is the highest value reported in the literature^28,50. The experimentally derived values of λ are used in the model. […]
# [7] = EGF 0.16 ng mL^−1, TCT surfaces
# [8] = EGF 0.80 ng mL^−1, TCT surfaces
compound,measurement,setting,value
[Gd+3] [Gd^3+],effect on closure of magnetically assembled monolayers,"[1]; vs gravity-assisted monolayers, no EGF, 0 and 16 h, TCT surfaces",insignificant
same,effect on cell viability (viable cell counts),"[2]; 25×10^−3 M paramagnetic solution 3 h, then 24, 48, 96 and 144 h, vs control",insignificant
same,toxicity to the cells,"[2]; live/dead and metabolism assays, residual Gd^3+",not toxic
same,cell metabolism (fluorescence intensity) vs control,[3],No significant difference
same,differential gene expression / impact on transcriptional profiles,[4],no statistically significant differentially expressed genes; also recorded: statistically insignificant
same,effect on cell viability,[5],does not affect cell viability
epidermal growth factor [EGF],closure rate of cell-free area,"[1]; TCT surfaces, 0.16 ng mL^−1 EGF",~0.56±0.05 mm^2 h^−1
same,closure rate of cell-free area,"[1]; TCT surfaces, 0.8 ng mL^−1 EGF",~0.58±0.01 mm^2 h^−1
same,closure rate of cell-free area,"[1]; collagen I-fibronectin surfaces, 0.16 ng mL^−1 EGF",~0.61±0.01 mm^2 h^−1
same,closure rate of cell-free area,"[1]; collagen I-fibronectin surfaces, 0.8 ng mL^−1 EGF",~0.62±0.02 mm^2 h^−1
same,change in cell-free areas,"[1]; collagen I-fibronectin surfaces, 0.8 ng mL^−1 EGF, at 4 h, in contrast to TCT surfaces",significant decrease
same,closure of cell-free regions,"[1]; collagen I-fibronectin surfaces, 0.8 ng mL^−1 EGF, at 16 h",near-complete closure
same,growth rate λ,[6]; 0.16 ng mL^−1 EGF,~0.03 h⁻¹
same,growth rate λ,[6]; 0.8 ng mL^−1 EGF,~0.03 h⁻¹
same,λ,[6]; EGF 0.16 ng mL^−1,2.91 h^−1 (×10^−2)
same,D0,[6]; [7],3.06 mm^2 h^−1 (×10^−3)
same,D1,[6]; [7],3.02 mm^2 h^−1
same,m,[6]; [7],1.97
same,"φ (dimensionless number, higher indicates faster closure)","[6]; EGF 0.16 ng mL^−1, tmax=24 h",3.23
same,λ,[6]; EGF 0.80 ng mL^−1,2.91 h^−1 (×10^−2)
same,D0,[6]; [8],3.91 mm^2 h^−1 (×10^−3)
same,D1,[6]; [8],3.75 mm^2 h^−1
same,m,[6]; [8],2.62
same,"φ (dimensionless number, higher indicates faster closure)","[6]; EGF 0.80 ng mL^−1, tmax=24 h",3.60

# From patent US20240263163A1, “CELL-FREE REGIONS BY LABEL-FREE MAGNETIC EXCLUSION” (McMaster University, priority 2021, published 2024)
